# Experimental data from ChEMBL document CHEMBL3580640, “Design, Synthesis, and Structure-Activity Relationships of Pyridine-Based Rho Kinase (ROCK) Inhibitors” (J Med Chem, 2015).
# Tests used:
# Type in all cases: ADME, organism-based
# Settings in all cases: in vivo
# Rattus norvegicus [1] = test: Clearance in iv dosed rat
# Rattus norvegicus [2] = test: Half life in iv dosed rat
# Rattus norvegicus [3] = test: Volume of distribution at steady state in iv dosed rat
# [4] = Cmax in iv dosed rat; set-up: route intravenous
# [5] = AUC in iv dosed rat
# [6] = Cmax in po dosed rat; set-up: route oral
# [7] = AUC in po dosed rat
# [8] = Tmax in po dosed rat
# [9] = Half life in po dosed rat
# [10] = Oral bioavailability in rat
structure (smiles),measurement,setting,value
CS(=O)(=O)Nc1cccc(CC(=O)Nc2cc(-c3ccnc(F)c3)cs2)c1,clearance,Rattus norvegicus [1],0.207 L/h/kg
same,t1/2,Rattus norvegicus [2],2.6 h
same,Vdss,Rattus norvegicus [3],0.675 L/kg
same,Cmax,[4],2.92 µg/mL
same,AUC,[5],4.31 µg·h/mL
same,Cmax,[6],3.2 µg/mL
same,AUC,[7],32.6 µg·h/mL
same,Tmax,[8],3 h
same,half-life,[9],3.4 h
same,bioavailability,[10],69%
